Experimental data: ChEMBL document CHEMBL1221193, “Deconstructing fragment-based inhibitor discovery” (Nat Chem Biol, 2006)

biological target: Beta-lactamase (Escherichia coli K-12, UniProt P00811); assay: Inhibition of Escherichia coli AmpC assessed as nitrocefin hydrolysis by UV-Vis spectrophotometry
Sequence (P00811 whole entry): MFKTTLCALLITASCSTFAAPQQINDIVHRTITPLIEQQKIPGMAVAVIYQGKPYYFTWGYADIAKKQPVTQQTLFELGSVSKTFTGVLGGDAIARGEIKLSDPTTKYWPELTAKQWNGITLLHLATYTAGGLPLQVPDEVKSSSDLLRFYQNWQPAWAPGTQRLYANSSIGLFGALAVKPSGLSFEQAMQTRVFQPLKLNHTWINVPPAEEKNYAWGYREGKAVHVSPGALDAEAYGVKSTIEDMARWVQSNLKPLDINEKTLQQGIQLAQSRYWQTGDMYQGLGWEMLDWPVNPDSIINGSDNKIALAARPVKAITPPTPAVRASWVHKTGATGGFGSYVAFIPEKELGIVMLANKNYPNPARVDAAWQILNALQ

Structure (SMILES) | Ki [mM]
O=C(O)c1ccc(NS(=O)(=O)c2ccsc2C(=O)O)c(O)c1 | 0.001
CS(=O)(=O)Nc1ccc(C(=O)O)cc1 | 10
O=C(O)c1cccs1 [THIOPHENE CARBOXYLIC ACID] | 40
